Values after ≈ are worked out from the molar mass of the structure shown. Values joined by “and” are separate entries in the source; they are usually repeats but may differ in a detail not shown here. Equal entries are not always repeated.
Tests used:
B16-F0 (Mouse melanoma) = assay: MTT test on B16-F0 cells; type: cell-based; conditions: Mus musculus, B16F0; B16-F0 cells, MTT, till 48 h
Experimental: (§1) The in vitro anticancer activities of the synthesized compounds were conducted using different cancerous and non-cancerous cell lines viz B16-F0 (Mouse melanoma), mouse Ehrlich Ascites Carcinoma (EAC), MCF-7 (Human breast cancer), MCF-10A (Human breast epithelial cells), and NIH/3T3 (Mouse fibroblast cells). All cell lines were procured from the National Centre for Cell Science, Pune, India. The procured cells were cultured in a six-well culture plate with Dulbecco’s Modified Eagle’s Medium (DMEM) supplemented with 10% fetal bovine serum in a humid CO2 incubator with 5% carbon dioxide at 37 °C.
(§2) The anti-cancer effect and cytotoxicity of both 3-MBTSc and 4-NBTSc compounds were evaluated against different cancerous (MCF-7, EAC, B16-F0 cells) and noncancerous cells (MCF-10A, NIH-3T3 cells) using MTT test. In brief, the stock solutions of both the tested compounds were prepared by dissolving 1 mg of each compound in 1 mL of DMSO separately. Then, four different concentrations (5, 10, 12, and 20 µg/mL) of both compounds were used during the test along with the negative control. Also, 10 μg/mL of doxorubicin (Dox) was used as the positive control during the experiment. Both untreated and treated cells were incubated for next 24 and 48 h. Then, all the steps during the whole experiment were carried out by our earlier reported procedure. Later, the absorbance values were measured by an ELISA reader (Biorad, Hercules, CA, USA) at 570 nm wavelength using secondary wavelength as a reference at 620 nm and the percentages of cell viability was calculated using the following formula [59, 60, 61]. Cell viability (%)= Mean absorbance of treated cells/Mean absorbance of untreated cells × 100
(§3) Based on the cell viability data, the IC50 values of both compounds were calculated on different cancer cells by plotting their corresponding dose-responsive graphs.
(§4) The obtained data were statistically analyzed. The descriptive analysis was done and the IC50 values were calculated by fitting the sigmoidal dose responsive graph using GraphPad Prism (GraphPad Software, Inc., La Jolla, CA, USA). […]

[1] = system: mouse Ehrlich Ascites Carcinoma (EAC); assay: MTT test on EAC cells; type: cell-based; conditions: Mus musculus, Ehrlich; EAC cells, MTT, till 48 h
Experimental: as §1, §2, §3, §4

[2] = system: gene expression in EAC cells; assay: RT-qPCR gene expression in EAC cells; type: cell-based, mouse
Experimental: (§5) Total mRNA was isolated and extracted by Trizol reagent as described in an earlier method. RevertAid First Strand cDNA synthesis kit (Thermo Fisher Scientific, Waltham, MA, USA) was used to synthesize cDNA in a total reaction volume of 20 μL containing oligo-dT primers, RiboLock RNase inhibitor, and reverse transcriptase. Gene-specific primers were used to amplify cDNAs in RT-qPCR machine (Applied Biosystems, Waltham, MA, USA).

[3] = system: gene expression in B16-F0 melanoma cells; assay: RT-qPCR gene expression in B16-F0 cells; type: cell-based, Mouse
Experimental: as §5

[4] = system: gene expression in MCF-7 human breast cancer cells; assay: RT-qPCR gene expression in MCF-7 cells; type: cell-based
Experimental: as §5

[5] = EAC cells treated, GAPDH housekeeping gene
[6] = EAC cells, difference of RQ values
[7] = B16-F0 cells treated, GAPDH housekeeping gene
[8] = B16-F0 cells, difference of RQ values
[9] = MCF-7 cells treated, GAPDH housekeeping gene
[10] = MCF-7 cells, difference of RQ values

## NC(=S)N[N-][CH+]c1ccc([N+](=O)[O-])cc1 [4-NBTSc, 4-Nitrobenzaldehyde thiosemicarbazone]
B16-F0 (Mouse melanoma)
  IC50: 7.129 ± 0.012 µg/mL (≈ 31.8 µM)
[1]
  IC50: 3.832 ± 0.014 µg/mL (≈ 17.1 µM)
[2]; [5]
  BCl2 Treated (RQ value): 6.195 ± 0.021
  BRCA1 Treated (RQ value): 7.195 ± 0.021
  Bax Treated (RQ value): 2.945 ± 0.035
  Caspase-3 Treated (RQ value): 4.23 ± 0.028
  Dmp1 Treated (RQ value): 4.1 ± 0.014
  Fos Treated (RQ value): 3.095 ± 0.021
  MTS 1 Treated (RQ value): 1.945 ± 0.035
  Mdm2 Treated (RQ value): 4.955 ± 0.021
  PKC Treated (RQ value): 7.13 ± 0.028
  PTEN Treated (RQ value): 8.65 ± 0.028
  RAS Treated (RQ value): 3.13 ± 0.028
  p19 Arf Treated (RQ value): 4.605 ± 0.021
  p21 Treated (RQ value): 3.125 ± 0.035
  p53 Treated (RQ value): 3.165 ± 0.064
  pRB Treated (RQ value): 6.095 ± 0.035
[2]; [6]
  BCl2 Fold Change (EAC treated-EAC untreated): 3.105 fold
  BRCA1 Fold Change (EAC treated-EAC untreated): 5.135 fold and 5.13 fold
  Bax Fold Change (EAC treated-EAC untreated): -0.105 fold
  Caspase-3 Fold Change (EAC treated-EAC untreated): 1.33 fold
  Dmp1 Fold Change (EAC treated-EAC untreated): 1.95 fold
  MTS 1 Fold Change (EAC treated-EAC untreated): 0.04 fold
  Mdm2 Fold Change (EAC treated-EAC untreated): -0.25 fold
  PTEN Fold Change (EAC treated-EAC untreated): 7.42 fold
  p19 Arf Fold Change (EAC treated-EAC untreated): 1.855 fold
  p21 Fold Change (EAC treated-EAC untreated): 2.13 fold
  p53 Fold Change (EAC treated-EAC untreated): 2.105 fold
  pRB Fold Change (EAC treated-EAC untreated): 4.19 fold
[3]; [7]
  BCl2 Treated (RQ value): 2.36 ± 0.028
  BRCA1 Treated (RQ value): 1.94 ± 0.028
  Bax Treated (RQ value): 6.09 ± 0.028
  Caspase-3 Treated (RQ value): 5.215 ± 0.021
  Dmp1 Treated (RQ value): 7.19 ± 0.028
  Fos Treated (RQ value): 2.905 ± 0.021
  MTS 1 Treated (RQ value): 4.865 ± 0.021
  Mdm2 Treated (RQ value): 6.1 ± 0.014
  PKC Treated (RQ value): 7.14 ± 0.028
  PTEN Treated (RQ value): 6.97 ± 0.014
  RAS Treated (RQ value): 4.145 ± 0.035
  p19 Arf Treated (RQ value): 3.145 ± 0.035
  p21 Treated (RQ value): 4.12 ± 0.014
  p53 Treated (RQ value): 3.185 ± 0.021
  pRB Treated (RQ value): 1.06 ± 0.085
[3]; [8]
  BCl2 Fold Change (B16-F0 treated-B16-F0 untreated): 0.27 fold
  BRCA1 Fold Change (B16-F0 treated-B16-F0 untreated): 0.14 fold
  Bax Fold Change (B16-F0 treated-B16-F0 untreated): 3.355 fold and 3.35 fold
  Caspase-3 Fold Change (B16-F0 treated-B16-F0 untreated): 2.615 fold
  Dmp1 Fold Change (B16-F0 treated-B16-F0 untreated): 4.7 fold
  MTS 1 Fold Change (B16-F0 treated-B16-F0 untreated): 2.93 fold
  Mdm2 Fold Change (B16-F0 treated-B16-F0 untreated): -1.14 fold
  PTEN Fold Change (B16-F0 treated-B16-F0 untreated): 4.825 fold and 4.82 fold
  p19 Arf Fold Change (B16-F0 treated-B16-F0 untreated): 1.81 fold
  p21 Fold Change (B16-F0 treated-B16-F0 untreated): 1.93 fold
  p53 Fold Change (B16-F0 treated-B16-F0 untreated): 1.025 fold
  pRB Fold Change (B16-F0 treated-B16-F0 untreated): -0.54 fold
[4]; [9]
  BCl2 Treated (RQ value): 3.11 ± 0.01
  BRCA1 Treated (RQ value): 2.86 ± 0.455
  BRCA2 Treated (RQ value): 4.13 ± 0.02
  Bax Treated (RQ value): 1.825 ± 0.025
  Caspase-3 Treated (RQ value): 1.85 ± 0.04
  Dmp1 Treated (RQ value): 2.19 ± 0.02
  ER Treated (RQ value): 2.14 ± 0.03
  Hdm2 Treated (RQ value): 3.92 ± 0.045
  Myc Treated (RQ value): 2.35 ± 0.025
  PKC Treated (RQ value): 6.09 ± 0.02
  PR Treated (RQ value): 1.15 ± 0.02
  PTEN Treated (RQ value): 5.09 ± 0.02
  RAS Treated (RQ value): 3.94 ± 0.02
  p19 Arf Treated (RQ value): 0.995 ± 0.025
  p21 Treated (RQ value): 4.12 ± 1.51
  p53 Treated (RQ value): 4.185 ± 0.025
  pRB Treated (RQ value): 3.81 ± 0.02
[4]; [10]
  BCl2 Fold Change (MCF 7 treated-MCF 7 untreated): 1.02 fold
  BRCA1 Fold Change (MCF 7 treated-MCF 7 untreated): 1.06 fold
  BRCA2 Fold Change (MCF 7 treated-MCF 7 untreated): 2.19 fold
  Bax Fold Change (MCF 7 treated-MCF 7 untreated): 1.1 fold
  Caspase-3 Fold Change (MCF 7 treated-MCF 7 untreated): 1.25 fold
  Dmp1 Fold Change (MCF 7 treated-MCF 7 untreated): -0.3 fold
  ER Fold Change (MCF 7 treated-MCF 7 untreated): -2.7 fold
  Hdm2 Fold Change (MCF 7 treated-MCF 7 untreated): -3.32 fold
  Myc Fold Change (MCF 7 treated-MCF 7 untreated): -5.1 fold
  PR Fold Change (MCF 7 treated-MCF 7 untreated): -0.05 fold
  PTEN Fold Change (MCF 7 treated-MCF 7 untreated): 2.945 fold and 2.95 fold
  p19 Arf Fold Change (MCF 7 treated-MCF 7 untreated): -0.34 fold
  p21 Fold Change (MCF 7 treated-MCF 7 untreated): 1.93 fold
  p53 Fold Change (MCF 7 treated-MCF 7 untreated): 2.025 fold
  pRB Fold Change (MCF 7 treated-MCF 7 untreated): 2.21 fold

From PMC8533299, “Synthesis, In Silico Study, and Anti-Cancer Activity of Thiosemicarbazone Derivatives” (Biomedicines, 2021)
